# Test results published in a melting point compilation (Tetko et al.; mined from patent text by program, amines drawn as free bases though some values may be those of a salt).
row,melting point,Compound
1,168 to 169 °C,OCCOCCn1ccc2ncnc(Nc3ccc(OCc4cccc(F)c4)c(Cl)c3)c21
2,166 to 167 °C,CN1CCC(O)(c2ccccc2[N+](=O)[O-])CC1
3,141 to 144 °C,CC(O)N1CCC(=C2c3ccccc3C=Cc3ccc(S(=O)(=O)C(F)(F)F)cc32)CC1 (stereo not drawn)
4,63 to 67 °C,C=C(C)c1cc(Br)c(Oc2nc(C)nc(N3CCOCC3)n2)c(OC)c1
5,222 °C,CCCCOc1c(CN2C(=O)c3ccccc3C2=O)n(CCC(=O)N2CCCC2)c(=O)c2cc(Cl)c(Cl)cc12
6,119 to 120 °C,CNC(=C[N+](=O)[O-])NCCSCc1csc(CN2CCCC2)n1
7,63 to 64 °C,CCNC1=NN(c2ccc(Cl)cc2)CC1C (stereo not drawn)
8,164 to 167 °C,CCOc1ccc(C2(N)NC(Nc3ccc4c(c3)OCCO4)=NC=C2F)cc1 (stereo not drawn)
9,98 to 100 °C,CCOC(=O)COc1cc(F)c(C)cc1C(=S)NCc1ccc(Br)cc1F
10,228 to 231 °C,O=S1(=O)NC(C2CC2)Nc2ccc(S(=O)(=O)N3CCCCC3)cc21 (stereo not drawn)
11,52 to 55 °C,COc1ccc(OC)c(COc2cc(Cl)sn2)c1
12,216 to 220 °C,O=C1Nc2ccccc2C12COc1cc3c(cc12)CCCO3 (stereo not drawn)
13,61 to 63 °C,N[C@@H](Cc1ccccc1)[C@@H](O)C[C@H](Cc1ccccc1)NC(=O)OCc1cncs1
14,76 to 78 °C,COc1ccc2cc([C@H](C)C(=O)OCCOc3ccc(OCCO)cc3)ccc2c1
15,97 to 98 °C,CCCCCCCCCCC(=O)C(=O)N[C@@H](CCC(=O)O)C(=O)O
16,88 °C,Cc1cc(CCCCCCCOc2ccc(C3=NCCO3)cc2Cl)on1
17,152 °C,C#Cc1c(O)c(C)c(C)c(O)c1C#C
18,151 to 152 °C,CCOc1nnc(-c2ccc(C(F)(F)F)cc2)[nH]1
19,82 to 84 °C,O=[N+]([O-])CC(c1ccc(Cl)cc1)C1CCCCC1O (racemic)
20,140 to 141 °C,O=C1C(c2ccccc2)OC(=S)N1Nc1ccccc1 (stereo not drawn)
21,284 to 286 °C,NC(=O)c1n[nH]c2ccccc12
22,> 250 °C,FC(F)(F)c1ccc(-c2ccc3[nH]c4c(ccc5cc[nH]c54)c3c2)cc1
23,174 to 175 °C,CC(C)Cn1c(=O)n(C)c(=O)c2c(Sc3nc(Br)n[nH]3)c(Cc3ccccc3C(F)(F)F)sc21

row,melting point,Compound
1,46 to 47 °C,CCCCCCCCOc1ccc(C(=O)OC)c(O)c1
2,181 to 185 °C,CC(=O)COc1ccc2cc(S(N)(=O)=O)sc2c1
3,181 to 182 °C,CC(=O)N1CCN(c2ccc(-n3ccnc3)cc2)CC1
4,164 °C,CCOC(=O)c1c(C)cc(C(=O)O)c(NC(C)=O)c1C
5,230 to 231 °C,CCOC(=O)CS(=O)(=O)Cc1cccc(-c2c(CC(=O)Nc3ccc(F)cc3C(F)(F)F)c(=O)oc3cc(Cl)c(C)cc23)c1
6,221 to 222 °C,CON(C)C(=O)Nc1c(C(=O)c2occc2CO)[nH]c2cc(Cl)ccc12
7,265 to 266 °C,COc1cc(Nc2c(C#N)cnc3c(Br)csc23)c(Cl)cc1Cl
8,89 to 90 °C,O=C(O[C@@H]1CCN(CC#CCN2CCCC2)C1=O)c1ccc([N+](=O)[O-])cc1
9,212 to 214 °C,CNC(=O)C1=C(c2ccccc2)OC(c2ccccc2)CC1=O (stereo not drawn)
10,189 °C,CC(=O)OC1CSC(Oc2ccc(-c3ccncc3)nc2)C(OC(C)=O)C1OC(C)=O (stereo not drawn)
11,79 °C,CCCCCCCNC(=O)N(CCC)c1cccc(-c2ccc(CCC(=O)O)cc2)c1
12,150 to 151 °C,O=C1CC(/C=C/c2ccccc2)=Nc2ccccc2N1Cc1ccccc1
13,171 to 172 °C,COc1ccc(Cn2nc(-c3ccc(OC)cc3)c(-c3ccc(OC)cc3)cc2=O)cc1
14,274 to 275 °C,CC(C)(C)c1ccc(C(=O)Nc2cn3nc(NC4CC4)ccc3n2)cc1
15,110 to 114 °C,CC(C)c1nn(-c2ccc3ccccc3n2)c(-c2ccc(F)cc2)c1Br
16,64 to 66 °C,Cc1ccc(S(=O)(=O)OCCNC(=O)OC(C)(C)C)cc1
17,142 to 147 °C,Cc1sc(-c2ccc(C(F)(F)F)cc2)nc1CCOc1ccc(CCC(=O)O)cc1
18,149 to 153 °C,CS(=O)(=O)N1CCC(NC(=O)OCc2ccccc2)CC1
19,163 to 180 °C,CC(=O)N1CCN(Cc2ccc(-c3cc4ncnc(Nc5ccc6[nH]ccc6c5)c4s3)cc2)CC1
20,150 to 151 °C,CCCCOc1ccc(Nc2cc(Nc3ccc4c(c3)OCCO4)ncc2F)cc1
21,182 °C,COc1cc2cc(C(=O)OCc3ccccc3)[nH]c2cn1
22,192 to 195 °C,Fc1ccc(Nc2ncnc3cnc(NC4CCC(N5CCCC5)CC4)nc23)cc1Cl (stereo not drawn)
23,119 to 120 °C,COC(=O)c1cccc(CC(=O)Nc2cccc(/C=C/c3nc(C4CCC4)cs3)c2)c1

row,melting point,Compound
1,167 to 168 °C,CCOC(=O)Nc1ccc(C(C)C(O)(Cn2cncn2)c2ccc(F)cc2F)cn1 (stereo not drawn)
2,217 to 219 °C,Cn1cc(C2=C(c3cn4c5c(cccc35)CCC4)C(=O)OC2=O)c2ccccc21
3,119 to 122 °C,FC(F)(F)Oc1ccc(Nc2nc(Cl)nc(Cl)n2)cc1
4,175 to 176 °C,CC(C)(N)C(O)c1cc(C(F)(F)F)nc2c(C(F)(F)F)cccc12 (stereo not drawn)
5,232 to 236 °C,O=C(Cn1cc(Cl)cnc1=O)c1ccc([N+](=O)[O-])cc1
6,175 to 176 °C,Cc1ccc(-c2ccc3c(c2)C=C(C(=O)Nc2ccc(CN4CCCCC4)cc2)CC(C)O3)cc1 (stereo not drawn)
7,181 °C,NC(=O)N(O)CC#Cc1cccc(C2=N[C@H](c3ccc(F)cc3)CO2)c1
8,117 to 122 °C,O=C(Nc1cc(Cc2n[nH]c(=O)c3ccccc23)ccc1N1CCOCC1)c1cccc(CCl)c1
9,128 °C,COc1nc(C)nc(NC(=O)NS(=O)(=O)OCC(Cl)(Cl)Cl)n1
10,153 to 156 °C,COC(=O)c1ccccc1S(=O)(=O)NCC(=O)Nc1cc(C)on1
11,137 to 138 °C,CNC(=O)C1=CN=C(N2CCN(C)CC2)CC1c1ccccc1C (racemic)
12,124 to 129 °C,C[C@@H](n1cnc2cc(Cl)ccc2c1=O)[C@](O)(Cn1cncn1)c1ccccc1F
13,140 °C,CCCc1nn(C)c(C(N)=O)c1C(=O)c1ccc(N)cc1
14,212 °C,CN1CCN(c2ccc(N)c(C(=O)O)c2)CC1
15,253 to 255 °C,Cc1cc(-c2ccccc2)nc2nc(N)ccc12
16,238 to 239 °C,N#Cc1cc(NC(=O)c2cc3ccccc3s2)ccc1N1CCN(CCO)CC1
17,132 to 134 °C,O=C(O)c1nc(I)c2cc(Cc3ccc(F)cc3)cnc2c1OCc1ccccc1
18,165 to 168 °C,COc1ccc2c(c1)S(=O)(=O)C(C(=O)Nc1cccc(C(F)(F)F)c1)C(=O)N2C (stereo not drawn)
19,159 °C,CCCCc1nc2c(N)nc3cccnc3c2n1CCOc1ccccc1
20,132 °C,Brc1ccc(CSc2nc(-c3ccncc3)ns2)cc1
21,> 300 °C,O=C1NC(=O)c2c1c(-c1ccccc1)c(-c1ccccc1)c1[nH]c3ccc(O)cc3c21
22,81 to 82 °C,CC(=O)NCC1CC1c1cccc2nnsc12 (stereo not drawn)
23,227 to 231 °C,COCCOc1ccc(-c2ccc3c(c2)C=C(C(=O)Nc2ccc(CN(C)C4CCOCC4)cc2)CCS3(=O)=O)cc1

row,melting point,Compound
1,173 to 176 °C,CC(C)(C)c1cc(SCN2CCN(CSc3cc(C(C)(C)C)c(O)c(C(C)(C)C)c3)C2=O)cc(C(C)(C)C)c1O
2,138 to 140 °C,O=C(CCCCCc1cccc2cncn12)NO
3,97 to 98 °C,Cc1c(C)c2c(c3c1NCC3)CC(C)(CI)O2 (stereo not drawn)
4,220 to 222 °C,CCOC(=O)c1cc2cc(-c3ccc(C(C)=NO)cc3)ccc2o1
5,212 to 215 °C,Cc1ccc(C(C)(C)C)c(O)c1-c1nc2cc(C#N)ccc2[nH]1
6,190 to 195 °C,Nc1nc(Cl)c2ncn(OCCOCP(=O)(O)O)c2n1
7,89 to 90 °C,CC/C=C\CCCCCCCCCCOc1ccc(C(=O)O)o1
8,124 to 125 °C,CCCCOCCOc1ccc(-c2ccc3c(c2)C=C(C(=O)O)CCN3CC2CCCCC2)cc1
9,207 to 209 °C,CC1(c2ccc(Oc3nc4ccc(Cl)cc4s3)cc2)OC(=O)N(Nc2ccccc2)C1=O (stereo not drawn)
10,223 to 225 °C,O=c1[nH]c2ccc(Cl)cc2c(=O)n1S(=O)(=O)c1ccc(Cl)cc1
11,120 to 122 °C,COc1cccc(C2CCCCN(Cc3ccccc3)C2=O)c1 (stereo not drawn)
12,110 °C,COC(C#N)=CC1C(C(=O)O)C1(C)C (stereo not drawn)
13,66 to 70 °C,COC(=O)[C@@H]1CCCN1S(=O)(=O)c1ccc(Cl)c(COc2cccc3c(C)cc(C)nc23)c1OC
14,140 to 141 °C,COCOc1ccccc1-c1cc(-c2cccc(C(=O)OC)c2OC)c(C#N)c(NC(=O)c2ccco2)n1
15,159 to 160 °C,O=[N+]([O-])c1cnccc1N1CCc2ccccc21
16,197 °C,COc1cc(Nc2nccc(-c3c[nH]c4ccccc34)n2)cc(OC)c1OC
17,189 to 190 °C,Cc1ccccc1C(=O)c1ccc(Nc2ccc(Br)cc2NC(=O)OCCl)cc1Cl
18,106 °C,CCOC(=O)c1nc2ccccn2c1-c1ccccc1
19,122 °C,COc1ccc(S(N)(=O)=O)cc1C(O)CN=[N+]=[N-] (stereo not drawn)
20,181 °C,CCOC(=O)OCC1OC(n2cc(C=CBr)c(=O)[nH]c2=O)CC1Cl (stereo not drawn)
21,160 to 161 °C,CS(=O)(=O)N(Cl)C(=O)c1cc(Oc2ccc(C(F)(F)F)cc2Cl)ccc1[N+](=O)[O-]
22,178 °C,N#Cc1cn(COCCO)c2ncnc(N)c12

row,Compound,melting point
1,CCN1C[C@H](CN2CCN(C(c3ccccc3)c3ccccc3)CC2)C[C@@H]2c3cccc4[nH]cc(c34)C[C@H]21,203 to 205 °C
2,CN1C(=O)C(NC(=O)Nc2cccc(C#N)c2)C(=O)N(c2ccccc2)c2ccccc21 (stereo not drawn),> 250 °C
3,COc1c(C)c(NC(=O)CC(C)(C)C)c(C)c2c1OCC2c1ccc(C(C)C)cc1 (stereo not drawn),150 to 151 °C
4,O=C(NCCO[N+](=O)[O-])c1ccoc1,80 to 82 °C
5,O=C(N[C@@H]1C2CCN(CC2)[C@H]1Cc1cccnc1)c1cc2ccccc2o1,134 to 139 °C
6,O=C(NC1(C2CC2)CC1)c1c(NC(=O)c2cc(C(F)(F)F)nn2-c2ncccc2Cl)c(Br)cc2cn[nH]c12,212 to 214 °C
7,CCC1N=C(c2ccccc2Cl)c2cc(CC(=O)O)sc2-n2c(C)nnc21 (stereo not drawn),170 to 180 °C
